Publication PMC8125337 (International Journal of Molecular Sciences, 2021)

Target: T1, TRPV1 (vanilloid receptor)
T1 construct: native receptor in hemocytes
Assay: radioligand saturation binding, rapid filtration
Assay type: cell-based, Mytilus galloprovincialis

C=C(C)[C@]12C[C@@H](C)[C@@]34O[C@](Cc5ccccc5)(O[C@@H]1[C@@H]3C=C(COC(=O)Cc1ccc(O)c(OC)c1)C[C@]1(O)C(=O)C(C)=C[C@@H]41)O2 [resiniferatoxin]
Kd: 413 ± 168 pM
